Test results as given in patent US10870647B2, “Imidazopyridine derivative, method for preparing same, and pharmaceutical composition containing same as active ingredient for preventing or treating cancer” (DAEGU-GYEONGBUK MEDICAL INNOVATION FOUNDATION, priority 2016, dated 2020).

Tests used:
Experiment in all cases: Kinase selectivity, scanMAX Kinase assay panel (DiscoverX), % control at 1 uM
Assay type in all cases: binding
[1] = target: T1, scanMAX Kinase assay panel (Homo sapiens, UniProt Q13523); conditions: PRP4; 1 uM; read-out: Percent Control (%)
T1 construct: purchased DiscoverX
T1 sequence (Q13523 whole entry): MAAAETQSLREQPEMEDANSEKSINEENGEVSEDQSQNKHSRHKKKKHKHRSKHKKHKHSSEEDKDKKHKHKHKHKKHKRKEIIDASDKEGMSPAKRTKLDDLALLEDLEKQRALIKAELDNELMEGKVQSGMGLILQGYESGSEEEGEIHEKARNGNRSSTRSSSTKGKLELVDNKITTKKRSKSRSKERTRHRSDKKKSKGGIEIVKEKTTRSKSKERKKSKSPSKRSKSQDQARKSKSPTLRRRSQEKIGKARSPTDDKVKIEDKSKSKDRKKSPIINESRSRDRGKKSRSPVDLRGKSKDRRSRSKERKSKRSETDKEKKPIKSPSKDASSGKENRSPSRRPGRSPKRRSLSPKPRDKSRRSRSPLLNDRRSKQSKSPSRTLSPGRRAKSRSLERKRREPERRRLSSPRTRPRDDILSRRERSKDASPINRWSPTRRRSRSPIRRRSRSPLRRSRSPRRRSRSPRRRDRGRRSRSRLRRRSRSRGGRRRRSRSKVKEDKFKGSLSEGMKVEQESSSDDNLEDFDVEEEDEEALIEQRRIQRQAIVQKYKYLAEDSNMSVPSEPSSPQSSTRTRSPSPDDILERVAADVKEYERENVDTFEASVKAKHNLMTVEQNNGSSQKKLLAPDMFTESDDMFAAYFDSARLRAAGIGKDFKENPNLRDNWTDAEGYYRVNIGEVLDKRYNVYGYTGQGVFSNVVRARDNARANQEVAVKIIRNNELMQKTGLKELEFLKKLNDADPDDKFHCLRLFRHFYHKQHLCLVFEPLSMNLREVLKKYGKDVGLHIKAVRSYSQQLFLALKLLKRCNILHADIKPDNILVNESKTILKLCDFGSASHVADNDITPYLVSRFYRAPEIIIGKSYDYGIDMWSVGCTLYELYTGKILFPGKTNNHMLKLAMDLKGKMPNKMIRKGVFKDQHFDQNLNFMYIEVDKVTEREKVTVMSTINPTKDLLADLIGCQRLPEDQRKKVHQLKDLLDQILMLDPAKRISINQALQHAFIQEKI
Procedure, shortened: (§1)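 Binding across the scanMAX kinase panel was tested at 1 uM compound. % control = (compound − positive control)/(negative control − positive control) × 100; below 35 counted as active.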

[2] = target: T2, scanMAX Kinase assay panel (Homo sapiens, UniProt Q96PN8); conditions: TSSK3; 1 uM; read-out: Percent Control (%)
T2 construct: purchased DiscoverX
T2 sequence (Q96PN8 1-268): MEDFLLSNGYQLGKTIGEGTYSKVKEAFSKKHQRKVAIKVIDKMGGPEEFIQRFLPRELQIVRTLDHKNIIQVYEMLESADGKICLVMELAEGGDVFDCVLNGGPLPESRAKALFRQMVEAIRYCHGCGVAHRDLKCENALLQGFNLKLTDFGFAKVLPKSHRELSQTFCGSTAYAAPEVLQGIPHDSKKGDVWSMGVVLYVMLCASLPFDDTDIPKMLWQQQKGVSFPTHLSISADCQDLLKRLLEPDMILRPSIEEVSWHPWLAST
Procedure, shortened: as §1

[3] = target: T3, scanMAX Kinase assay panel (Homo sapiens, UniProt Q9BVS4); conditions: RIOK2; 1 uM; read-out: Percent Control (%)
T3 construct: purchased DiscoverX
T3 sequence (Q9BVS4 whole entry): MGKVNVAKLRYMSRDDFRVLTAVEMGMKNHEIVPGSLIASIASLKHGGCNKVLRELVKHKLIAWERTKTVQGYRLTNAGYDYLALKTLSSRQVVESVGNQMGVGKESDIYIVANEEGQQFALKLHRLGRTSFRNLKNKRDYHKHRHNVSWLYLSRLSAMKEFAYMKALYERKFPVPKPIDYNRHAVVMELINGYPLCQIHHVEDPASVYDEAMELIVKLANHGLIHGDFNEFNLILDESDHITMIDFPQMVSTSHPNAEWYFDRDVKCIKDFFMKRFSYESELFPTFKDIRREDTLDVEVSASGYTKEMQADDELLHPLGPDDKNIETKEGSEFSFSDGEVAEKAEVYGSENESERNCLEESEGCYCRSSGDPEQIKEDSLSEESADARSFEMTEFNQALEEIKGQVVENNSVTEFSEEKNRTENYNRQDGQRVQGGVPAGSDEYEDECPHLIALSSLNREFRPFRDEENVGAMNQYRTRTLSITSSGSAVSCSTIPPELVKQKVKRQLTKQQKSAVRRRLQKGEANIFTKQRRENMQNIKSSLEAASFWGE
Procedure, shortened: as §1

[4] = target: T4, scanMAX Kinase assay panel (Homo sapiens, UniProt O94768); conditions: DRAK2; 1 uM; read-out: Percent Control (%)
T4 construct: purchased DiscoverX
T4 sequence (O94768 1-372): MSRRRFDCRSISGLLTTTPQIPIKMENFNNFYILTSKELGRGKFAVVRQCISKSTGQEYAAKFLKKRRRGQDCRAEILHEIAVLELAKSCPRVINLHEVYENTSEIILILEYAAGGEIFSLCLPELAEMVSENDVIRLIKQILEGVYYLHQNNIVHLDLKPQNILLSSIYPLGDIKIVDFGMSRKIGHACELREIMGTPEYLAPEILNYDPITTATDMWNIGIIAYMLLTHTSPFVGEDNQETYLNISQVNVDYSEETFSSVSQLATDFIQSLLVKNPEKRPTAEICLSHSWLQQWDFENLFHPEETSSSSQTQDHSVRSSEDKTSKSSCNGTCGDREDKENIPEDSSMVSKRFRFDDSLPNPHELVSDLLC
Procedure, shortened: as §1

[5] = target: T5, scanMAX Kinase assay panel (Homo sapiens, UniProt Q9BRS2); conditions: RIOK1; 1 uM; read-out: Percent Control (%)
T5 construct: purchased DiscoverX
T5 sequence (Q9BRS2 1-568): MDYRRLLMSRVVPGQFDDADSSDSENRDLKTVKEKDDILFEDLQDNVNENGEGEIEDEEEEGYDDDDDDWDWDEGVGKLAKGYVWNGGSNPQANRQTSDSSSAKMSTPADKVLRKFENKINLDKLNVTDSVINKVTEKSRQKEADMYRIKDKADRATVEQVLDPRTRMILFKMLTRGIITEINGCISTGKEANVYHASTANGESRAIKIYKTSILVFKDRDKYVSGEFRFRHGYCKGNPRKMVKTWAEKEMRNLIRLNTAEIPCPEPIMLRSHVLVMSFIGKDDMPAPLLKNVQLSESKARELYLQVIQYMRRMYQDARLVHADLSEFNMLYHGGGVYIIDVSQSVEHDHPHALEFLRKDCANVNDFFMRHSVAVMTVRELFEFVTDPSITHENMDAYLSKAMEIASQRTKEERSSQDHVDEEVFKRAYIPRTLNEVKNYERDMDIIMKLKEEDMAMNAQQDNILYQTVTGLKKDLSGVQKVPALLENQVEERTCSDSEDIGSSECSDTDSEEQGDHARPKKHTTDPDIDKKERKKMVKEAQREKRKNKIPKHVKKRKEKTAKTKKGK
Procedure, shortened: as §1

[6] = target: T6, scanMAX Kinase assay panel (Homo sapiens, UniProt Q9UQ88); conditions: CDC2L2; 1 uM; read-out: Percent Control (%)
T6 construct: purchased DiscoverX
T6 sequence (Q9UQ88 1-783): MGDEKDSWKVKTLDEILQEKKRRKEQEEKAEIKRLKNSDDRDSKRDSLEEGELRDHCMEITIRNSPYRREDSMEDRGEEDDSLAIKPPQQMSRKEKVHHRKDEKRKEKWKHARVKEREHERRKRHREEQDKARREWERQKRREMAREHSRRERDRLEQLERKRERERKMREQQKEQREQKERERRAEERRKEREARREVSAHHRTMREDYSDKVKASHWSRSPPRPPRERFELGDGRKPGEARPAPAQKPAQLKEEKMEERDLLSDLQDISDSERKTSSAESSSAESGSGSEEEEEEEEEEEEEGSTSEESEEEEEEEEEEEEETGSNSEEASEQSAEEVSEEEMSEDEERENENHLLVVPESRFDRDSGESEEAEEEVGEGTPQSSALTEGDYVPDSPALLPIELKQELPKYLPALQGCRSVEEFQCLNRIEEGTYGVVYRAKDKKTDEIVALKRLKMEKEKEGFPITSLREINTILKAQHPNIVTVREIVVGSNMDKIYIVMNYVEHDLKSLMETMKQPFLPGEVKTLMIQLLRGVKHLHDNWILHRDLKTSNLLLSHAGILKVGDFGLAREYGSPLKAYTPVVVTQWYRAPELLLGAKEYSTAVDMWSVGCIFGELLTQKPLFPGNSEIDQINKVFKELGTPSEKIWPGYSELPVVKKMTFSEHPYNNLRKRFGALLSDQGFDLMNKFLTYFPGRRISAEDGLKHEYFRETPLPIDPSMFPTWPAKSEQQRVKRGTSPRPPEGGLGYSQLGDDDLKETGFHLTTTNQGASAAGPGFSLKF
Procedure, shortened: as §1

[7] = target: T7, scanMAX Kinase assay panel (Homo sapiens, UniProt Q8IVW4); conditions: CDKL3; 1 uM; read-out: Percent Control (%)
T7 construct: purchased DiscoverX
T7 sequence (Q8IVW4 whole entry): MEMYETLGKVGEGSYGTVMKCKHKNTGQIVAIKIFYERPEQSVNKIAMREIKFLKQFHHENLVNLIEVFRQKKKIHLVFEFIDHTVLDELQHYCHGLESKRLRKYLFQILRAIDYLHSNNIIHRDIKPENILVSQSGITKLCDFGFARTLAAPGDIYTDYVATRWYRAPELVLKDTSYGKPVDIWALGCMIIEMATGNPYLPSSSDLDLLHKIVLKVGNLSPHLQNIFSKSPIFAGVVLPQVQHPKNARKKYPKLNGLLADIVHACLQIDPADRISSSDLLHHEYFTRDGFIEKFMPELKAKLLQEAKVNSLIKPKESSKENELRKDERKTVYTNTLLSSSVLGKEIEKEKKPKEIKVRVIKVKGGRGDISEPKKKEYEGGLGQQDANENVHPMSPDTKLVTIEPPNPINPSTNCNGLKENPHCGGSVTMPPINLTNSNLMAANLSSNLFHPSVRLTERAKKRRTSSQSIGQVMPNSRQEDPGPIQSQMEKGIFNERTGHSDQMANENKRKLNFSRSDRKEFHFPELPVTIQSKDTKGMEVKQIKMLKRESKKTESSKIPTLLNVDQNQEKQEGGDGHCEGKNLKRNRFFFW
Procedure, shortened: as §1

Row | SMILES | remaining binding at 1 µM [1] [%] | remaining binding at 1 µM [2] [%] | remaining binding at 1 µM [3] [%] | remaining binding at 1 µM [4] [%] | remaining binding at 1 µM [5] [%] | remaining binding at 1 µM [6] [%] | remaining binding at 1 µM [7] [%]
1 | Cc1ccc(C(=O)Nc2ccc(CN3CCN(C)CC3)c(C(F)(F)F)c2)cc1C#Cc1cnc2c(Nc3cnn(C)c3)cccn12 [Example 1, 4-methyl-3-((8-((1-methyl-1H-pyrazol-4-yl)amino)imidazo[1,2-a]pyridin-3-yl)ethynyl)-N-(4-((4-methylpiperazin-1-yl)methyl)-3-(trifluoromethyl)phenyl)benzamide] | 89 | 95 | 88 | 90 | 77 | 28 | 1
2 | Cc1cn(-c2cc(NC(=O)c3ccc(C)c(C#Cc4cnc5c(Nc6cnn(C)c6)cccn45)c3)cc(C(F)(F)F)c2)cn1 [Example 12, 4-methyl-N-(3-(4-methyl-1H-imidazol-1-yl)-5-(trifluoromethyl)phenyl)-3-((8-((1-methyl-1H-pyrazol-4-yl)amino)imidazo[1,2-a]pyridin-3-yl)ethynyl)benzamide] | 95 | 100 | 100 | 95 | 91 | 72 | 53
3 | Cc1ccc(NC(=O)C2(C(=O)Nc3ccc(F)cc3)CC2)cc1C#Cc1cnc2c(Nc3cnn(C(C)C)c3)cccn12 [Example 78] | 100 | 100 | 100 | 100 | 100 | 100 | 100
